Seven compounds from ChEMBL document CHEMBL1201862, “PubChem BioAssay data set” (2004) can be followed below.

The source made the active and inactive calls.

Assay [1] addresses Lysine-specific demethylase 4C (Homo sapiens, UniProt Q9H3R0). Description: inhibition of JMJD2C H3K9me3 demethylation – biochemical, DELFIA europium, cherry-picked samples, dose response (AID 488835). The format is functional.
Assay [2] deals with T1, Tyrosine-protein phosphatase non-receptor type 7 (Homo sapiens, UniProt P35236). The format is functional.
Assay [3] has as its target Glyceraldehyde-3-phosphate dehydrogenase (Homo sapiens, UniProt P04406).
Assay [4] addresses T2, Dual specificity protein phosphatase 6 (Rattus norvegicus, UniProt Q64346). Format: functional.
The target in assay [5] is T2, Dual specificity protein phosphatase 6.
The target of another assay is CAAX prenyl protease 1 (Saccharomyces cerevisiae S288c, UniProt P47154). Put plainly: yeast CAAX protease Ste24 inhibition – biochemical, S. cerevisiae, plate reader, cherry-pick, dose response (AID 488815).
Assay [6] addresses T3, Tyrosine-protein phosphatase non-receptor type 22 (Homo sapiens, UniProt Q9Y2R2). Format: functional.
The target of assay [7] is T3, Tyrosine-protein phosphatase non-receptor type 22. The format is functional. This is another data set of the same source.
In assay [8] the target is T4, Calpain-2 catalytic subunit (Sus scrofa, UniProt P43367).
T4 sequence (P43367 whole entry): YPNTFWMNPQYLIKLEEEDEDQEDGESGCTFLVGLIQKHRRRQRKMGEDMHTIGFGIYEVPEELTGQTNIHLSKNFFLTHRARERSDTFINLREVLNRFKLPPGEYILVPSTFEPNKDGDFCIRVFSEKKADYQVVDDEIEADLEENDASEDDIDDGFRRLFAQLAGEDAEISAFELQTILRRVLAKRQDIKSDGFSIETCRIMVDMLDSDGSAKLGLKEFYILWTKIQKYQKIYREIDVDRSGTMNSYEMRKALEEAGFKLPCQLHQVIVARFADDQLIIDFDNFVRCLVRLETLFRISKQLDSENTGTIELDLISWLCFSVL
Put plainly: m-calpain protease blockers, concentration series – biochemical, fluorogenic peptide substrate, dose response (AID 1420). The format is functional.

Assay [9] deals with T1, Tyrosine-protein phosphatase non-receptor type 7. The format is functional. The source holds these as a separate data set.
In assay [10] the target is T5, Beta-galactosidase (Escherichia coli, UniProt Q8VNN2). Format: functional.
The next assay has as its target Cytochrome P450 2C19 (Homo sapiens, UniProt P33261). Put plainly: Cytochrome panel assay with activity outcomes. Panel member name: p450-cyp2c19 Compounds with AC50 equal or less than 10 uM are considered active. The note with it: read-out: AC50. The format is functional.
Assay [11] addresses T6, Kappa-type opioid receptor (Homo sapiens, UniProt P41145). The format is functional.
A short description of assay [12]: reduction of Shn3 3'UTR-driven luciferase in osteoblasts – cell-based, Clone20 osteoblasts, firefly luciferase, cherry-picked, dose response (AID 624132).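 Further: firefly luciferase luminescence from reporter carrying the Shn3 3'UTR in osteoblasts.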 Format: functional.
Assay [13] is described as follows: non-specific 3'UTR reporter inhibition in Clone20-Shn3RL – cell-based, Renilla luciferase, cherry-picked, counter-screen for Shn3 inhibitor project, dose response (AID 624133). Format: functional. In general terms: A counterscreen serves to expose hits that act by an unwanted route or on another target.
Assay [14] addresses T7, Ubiquitin-conjugating enzyme E2 N (Homo sapiens, UniProt P61088).
T7 sequence (P61088 whole entry): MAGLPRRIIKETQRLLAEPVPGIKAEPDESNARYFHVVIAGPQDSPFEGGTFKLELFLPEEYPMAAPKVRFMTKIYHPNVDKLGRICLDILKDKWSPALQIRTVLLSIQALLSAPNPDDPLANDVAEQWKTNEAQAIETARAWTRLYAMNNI
Format: functional.

Assay [15] addresses T7, Ubiquitin-conjugating enzyme E2 N. The format is functional. The source holds these as a separate data set.
For assay [16], the target named is T6, Kappa-type opioid receptor. Format: functional. The source holds these as a separate data set.
Assay [17] relates to Vero. Put plainly: cells. The format is functional, cell-based. The following applies: Chlorocebus sabaeus.
Assay [18] in a line: loss of viability in HepG2 cells – cell-based, CellTiter-Glo, cherry-picked, cytotoxicity control for Shn3 inhibitor project, dose response (AID 624134). The format is functional.
For assay [19], the target named is ATP-dependent molecular chaperone HSP82 (Candida albicans (strain WO-1) (Yeast), UniProt C4YTQ8). Description: steroid-induced GRE reporter decrease in yeast – S. cerevisiae, luminescence, Hsp90 inhibitor project, dose response (AID 2400).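 Further: beta-galactosidase luminescence from glucocorticoid response element reporter as proxy for Hsp90 function; inhibitor potency where signal loss means Hsp90 inhibition.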 The format is functional, cell-based.
Assay [20] has as its target T8, Serine/threonine-protein phosphatase (Candida dubliniensis (strain CD36 / CBS 7987 / NCPF 3949 / NRRLY-17841) (Yeast), UniProt B9W6M3).
T8 sequence (B9W6M3 whole entry): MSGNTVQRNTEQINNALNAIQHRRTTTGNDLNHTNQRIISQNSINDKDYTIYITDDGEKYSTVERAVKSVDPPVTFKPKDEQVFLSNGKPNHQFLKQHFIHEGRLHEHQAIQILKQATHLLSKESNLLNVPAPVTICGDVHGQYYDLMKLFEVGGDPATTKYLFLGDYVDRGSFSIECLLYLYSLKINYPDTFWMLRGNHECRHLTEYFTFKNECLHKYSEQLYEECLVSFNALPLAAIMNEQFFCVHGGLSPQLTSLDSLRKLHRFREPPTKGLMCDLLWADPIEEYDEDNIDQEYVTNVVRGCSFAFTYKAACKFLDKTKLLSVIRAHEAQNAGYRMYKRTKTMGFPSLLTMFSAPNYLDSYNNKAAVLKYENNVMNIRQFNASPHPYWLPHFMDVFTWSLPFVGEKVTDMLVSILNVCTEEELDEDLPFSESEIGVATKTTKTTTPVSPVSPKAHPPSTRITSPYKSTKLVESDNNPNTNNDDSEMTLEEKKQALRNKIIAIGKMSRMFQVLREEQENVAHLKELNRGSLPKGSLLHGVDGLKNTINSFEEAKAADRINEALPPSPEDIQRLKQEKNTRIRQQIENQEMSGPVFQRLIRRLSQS
Description: blockers of CaCl2-induced CDRE-lacZ signaling – S. cerevisiae, luminescence, secondary, dose response (AID 2388).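 Further: yeast reporter cells carrying a calcineurin-responsive lacZ construct stimulated with calcium chloride; luminescent beta-galactosidase reporter signal in whole cells rather than isolated phosphatase activity; potency for inhibition where a drop in reporter signal means calcineurin blockade.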 The format is functional, cell-based.

Assay [21] has as its system Vero. Put plainly: cells. The format is functional. The note with it: Chlorocebus sabaeus.
For assay [22], the target named is T5, Beta-galactosidase. Put plainly: PubChem AID 485352. Format: functional.
Assay [23] addresses T9, Delta-type opioid receptor (Homo sapiens, UniProt P41143). Put plainly: HTS Image-Based Screen for Agonists of the DOR Receptor. [Related pubchem assays (depositor defined):AID1777, AID1786, AID2133]. The format is functional.
In assay [24] the target is T9, Delta-type opioid receptor. Put plainly: HTS Image-Based Screen for Antagonists of the DOR Receptor. [Related pubchem assays (depositor defined):AID1777, AID1785, AID1786, AID2133]. Format: functional.
A short description of assay [25]: NIH-3T3 fibroblast cytotoxicity, dose response, cytotoxicity control, cell-based, fluorescence, Alamar Blue, secondary assay (AID 2327).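 Further: NIH-3T3 mouse fibroblasts cultured with fluconazole at 8 µg/mL.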 The format is functional. A general note: Resazurin is reduced to fluorescent resorufin, in cell work by metabolically active cells.
The subject of assay [26] is Streptococcus sp. 'group A'. Put plainly: Streptococcus pyogenes SK(-)GAS viability under kanamycin – luminescence, BacTiterGlo, confirmation, counter-screen for streptokinase expression inhibitor project, dose response (AID 1900). The format is functional, organism-based.
Assay [27] can be described thus: fluconazole-exposed Candida albicans growth modulators – fluorescence, retest, confirmation (AID 2467). Format: functional, cell-based.
For the next assay, the target named is T10, Bcl-2-related protein A1 (Mus musculus, UniProt Q07440).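 Further: confirmatory dose–response counterscreen on Bfl-1, used to check hits from a UBC13 polyubiquitin inhibitor campaign.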
T10 sequence (Q07440 whole entry): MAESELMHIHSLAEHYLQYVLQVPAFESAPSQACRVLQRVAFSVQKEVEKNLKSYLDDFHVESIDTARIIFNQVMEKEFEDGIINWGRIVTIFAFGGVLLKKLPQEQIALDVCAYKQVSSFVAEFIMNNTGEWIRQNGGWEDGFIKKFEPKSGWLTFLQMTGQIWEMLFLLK
The format is functional.

The next assay has as its system Streptococcus. Description: GAS UMAA2166 growth inhibition – luminescence, BacTiterGlo, counter-screen for streptokinase expression inhibitor project, dose response (AID 1915).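 Further: potency for reduction of bacterial viability or growth.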 Format: functional, organism-based.
The target in the next assay is Mu-type opioid receptor (Homo sapiens, UniProt P35372). Put plainly: HTS Image-Based Screen for Agonists of the MOR Receptor. [Related pubchem assays (depositor defined):AID1777, AID1785, AID1786, AID2133]. Format: functional.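 Further: imaging of beta-arrestin GFP recruitment into spots after receptor activation.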
The target of assay [28] is T11, Type-1 angiotensin II receptor (Homo sapiens, UniProt P30556).
T11 sequence (P30556 whole entry): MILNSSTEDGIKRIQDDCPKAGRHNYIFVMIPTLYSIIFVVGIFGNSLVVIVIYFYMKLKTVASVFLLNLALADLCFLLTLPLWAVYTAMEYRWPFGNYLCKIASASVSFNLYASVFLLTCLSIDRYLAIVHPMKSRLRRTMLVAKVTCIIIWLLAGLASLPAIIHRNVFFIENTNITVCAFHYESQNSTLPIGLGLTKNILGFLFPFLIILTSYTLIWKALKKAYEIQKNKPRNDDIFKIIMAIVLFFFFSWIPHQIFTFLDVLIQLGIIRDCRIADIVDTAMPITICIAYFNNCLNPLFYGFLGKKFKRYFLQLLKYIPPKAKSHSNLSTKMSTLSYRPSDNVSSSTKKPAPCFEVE
Description: antagonism of angiotensin II type 1 receptor – cell-based, uHTS hits, selectivity assay for APJ receptor antagonist project, dose response (AID 463214).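 Further: antagonist potency against angiotensin II stimulated AT1 response.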 Format: functional.

Assay [29] can be described thus: Luminescence Cell-Based Dose Retest to Confirm Inhibitors of Cancer Stem Cells. [Related pubchem assays (depositor defined):AID2717, AID2721]. The format is functional. The note with it: Homo sapiens.
Assay [30] can be described thus: viability loss of HMLE_sh_eGFP cells – cell-based, luminescence, counter-screen for HMLE_sh_ECad selective toxicity project, dose response (AID 463074).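 Further: HMLE human mammary epithelial cells expressing control shRNA against eGFP.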 Format: functional, Homo sapiens.
Assay [31] can be described thus: Luminescence Cell-Based Secondary HTS screen to identify cytotoxic compounds of NIH3T3 cells. [Related pubchem assays: 1885, 1968 ]. Format: functional.
Assay [32] is described as follows: Luminescence Cell-Based/Microorganism Confirmation at Dose of Inhibitors of Trypanosoma cruzi Infection. [Related pubchem assays: 1885, 1968 ]. The format is functional.
Assay [33] is described as follows: Trypanosoma cruzi growth suppression in host cells – NIH3T3 host cells, beta-gal luminescence, confirmation (AID 2044).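 Further: intracellular parasites grown in NIH/3T3 mouse fibroblasts as host cells; luminescent beta-galactosidase reporter signal from transgenic T. cruzi replicating inside host cells; inhibitors lower the luminescence signal.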 Format: functional, cell-based.
Assay [34] can be described thus: T. cruzi infection blockers in NIH3T3 cells – beta-gal luminescence, NIH3T3 host cells, confirmation (AID 2630). Format: functional, cell-based. The note with it: Mus musculus.
Assay [35] can be described thus: NIH3T3 cell viability loss – ATP luminescence, mouse fibroblasts, counter-screen, dose response (AID 2010).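 Further: cells exposed to compound for about 90 hours before reading.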 Format: functional, cell-based.

T1 sequence (P35236 whole entry): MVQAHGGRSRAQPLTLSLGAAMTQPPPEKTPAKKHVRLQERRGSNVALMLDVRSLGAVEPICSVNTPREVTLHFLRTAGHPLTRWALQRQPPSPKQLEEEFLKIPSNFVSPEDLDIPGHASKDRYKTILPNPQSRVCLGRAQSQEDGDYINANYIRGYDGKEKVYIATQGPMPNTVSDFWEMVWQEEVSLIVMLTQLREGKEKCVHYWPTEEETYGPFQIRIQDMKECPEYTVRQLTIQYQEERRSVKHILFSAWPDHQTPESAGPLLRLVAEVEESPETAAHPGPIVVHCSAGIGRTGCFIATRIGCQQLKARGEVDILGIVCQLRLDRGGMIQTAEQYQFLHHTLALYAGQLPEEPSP
T2 sequence (Q64346 whole entry): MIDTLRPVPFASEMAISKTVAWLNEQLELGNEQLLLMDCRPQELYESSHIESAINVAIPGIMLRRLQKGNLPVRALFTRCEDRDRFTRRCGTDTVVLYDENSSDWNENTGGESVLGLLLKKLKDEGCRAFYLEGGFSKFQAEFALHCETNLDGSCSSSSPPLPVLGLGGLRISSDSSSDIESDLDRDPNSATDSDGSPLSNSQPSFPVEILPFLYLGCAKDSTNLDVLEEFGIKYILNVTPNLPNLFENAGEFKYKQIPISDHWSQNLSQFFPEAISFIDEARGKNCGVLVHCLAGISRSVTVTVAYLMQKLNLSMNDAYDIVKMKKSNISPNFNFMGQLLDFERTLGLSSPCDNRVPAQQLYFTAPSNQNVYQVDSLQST
T3 sequence (Q9Y2R2 whole entry): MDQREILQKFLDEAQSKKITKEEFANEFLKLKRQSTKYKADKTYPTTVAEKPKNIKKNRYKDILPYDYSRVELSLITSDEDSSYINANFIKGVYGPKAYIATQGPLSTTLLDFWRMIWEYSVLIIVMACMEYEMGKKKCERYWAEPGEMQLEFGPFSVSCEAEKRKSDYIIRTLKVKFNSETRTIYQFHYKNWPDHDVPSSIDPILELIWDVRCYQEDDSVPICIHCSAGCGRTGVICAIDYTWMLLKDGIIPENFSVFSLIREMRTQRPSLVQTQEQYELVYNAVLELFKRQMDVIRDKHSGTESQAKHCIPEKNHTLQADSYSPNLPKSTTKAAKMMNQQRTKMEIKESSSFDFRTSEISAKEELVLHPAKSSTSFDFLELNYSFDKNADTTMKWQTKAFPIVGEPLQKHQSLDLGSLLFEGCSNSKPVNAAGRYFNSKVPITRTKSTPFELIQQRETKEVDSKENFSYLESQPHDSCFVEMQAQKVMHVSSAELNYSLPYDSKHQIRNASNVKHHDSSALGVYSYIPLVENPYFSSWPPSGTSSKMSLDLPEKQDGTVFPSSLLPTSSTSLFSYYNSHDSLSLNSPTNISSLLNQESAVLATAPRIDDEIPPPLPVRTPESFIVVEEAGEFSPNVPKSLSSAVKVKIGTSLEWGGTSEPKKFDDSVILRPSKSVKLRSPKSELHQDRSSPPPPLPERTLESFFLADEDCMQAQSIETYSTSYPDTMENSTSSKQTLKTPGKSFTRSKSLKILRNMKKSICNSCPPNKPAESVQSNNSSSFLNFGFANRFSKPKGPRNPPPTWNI
T5 sequence (Q8VNN2 whole entry): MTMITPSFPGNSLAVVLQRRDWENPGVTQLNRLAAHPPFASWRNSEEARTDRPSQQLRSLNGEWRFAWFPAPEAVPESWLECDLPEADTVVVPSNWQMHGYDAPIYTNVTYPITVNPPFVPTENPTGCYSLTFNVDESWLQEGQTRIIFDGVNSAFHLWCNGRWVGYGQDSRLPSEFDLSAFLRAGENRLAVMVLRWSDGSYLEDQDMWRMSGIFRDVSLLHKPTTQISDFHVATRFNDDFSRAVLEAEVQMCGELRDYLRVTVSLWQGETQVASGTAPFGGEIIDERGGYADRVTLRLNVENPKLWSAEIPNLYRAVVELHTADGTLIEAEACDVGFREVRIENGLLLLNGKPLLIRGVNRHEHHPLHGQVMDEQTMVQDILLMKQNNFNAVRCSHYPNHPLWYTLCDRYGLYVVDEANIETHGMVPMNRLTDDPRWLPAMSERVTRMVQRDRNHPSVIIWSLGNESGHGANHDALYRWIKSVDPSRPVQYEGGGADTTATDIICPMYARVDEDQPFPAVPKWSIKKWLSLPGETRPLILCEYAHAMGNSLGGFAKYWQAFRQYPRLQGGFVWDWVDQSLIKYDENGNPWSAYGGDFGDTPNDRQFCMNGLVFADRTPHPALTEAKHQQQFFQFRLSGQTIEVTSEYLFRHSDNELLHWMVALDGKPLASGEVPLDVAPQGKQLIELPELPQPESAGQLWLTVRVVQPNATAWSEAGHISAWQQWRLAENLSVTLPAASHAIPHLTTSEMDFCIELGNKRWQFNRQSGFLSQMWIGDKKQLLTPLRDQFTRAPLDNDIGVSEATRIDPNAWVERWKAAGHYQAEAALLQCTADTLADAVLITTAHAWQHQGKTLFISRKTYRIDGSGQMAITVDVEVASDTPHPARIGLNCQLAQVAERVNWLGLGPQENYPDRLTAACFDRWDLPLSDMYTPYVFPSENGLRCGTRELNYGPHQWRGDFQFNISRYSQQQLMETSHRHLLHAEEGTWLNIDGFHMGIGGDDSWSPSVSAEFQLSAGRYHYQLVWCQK
T6 sequence (P41145 whole entry): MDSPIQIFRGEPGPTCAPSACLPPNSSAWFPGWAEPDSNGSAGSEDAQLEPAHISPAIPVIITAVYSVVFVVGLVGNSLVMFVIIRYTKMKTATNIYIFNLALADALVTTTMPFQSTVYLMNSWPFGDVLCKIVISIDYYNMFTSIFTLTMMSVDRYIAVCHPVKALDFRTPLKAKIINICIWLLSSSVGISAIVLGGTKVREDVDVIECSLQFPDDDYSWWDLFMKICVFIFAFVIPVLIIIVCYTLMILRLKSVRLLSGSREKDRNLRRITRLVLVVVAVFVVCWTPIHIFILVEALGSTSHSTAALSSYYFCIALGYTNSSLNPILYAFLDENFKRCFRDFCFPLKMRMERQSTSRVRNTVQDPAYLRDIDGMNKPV
T9 sequence (P41143 whole entry): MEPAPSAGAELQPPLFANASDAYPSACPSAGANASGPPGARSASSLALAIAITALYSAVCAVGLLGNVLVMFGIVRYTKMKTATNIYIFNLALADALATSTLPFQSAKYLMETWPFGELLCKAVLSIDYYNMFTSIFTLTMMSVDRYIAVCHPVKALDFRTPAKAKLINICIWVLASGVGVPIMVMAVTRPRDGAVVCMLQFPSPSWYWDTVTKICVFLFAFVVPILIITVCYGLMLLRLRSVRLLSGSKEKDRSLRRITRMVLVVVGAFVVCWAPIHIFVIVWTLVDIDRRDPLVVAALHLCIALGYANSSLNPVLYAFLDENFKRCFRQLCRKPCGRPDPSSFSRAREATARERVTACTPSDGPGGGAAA
Chain of CAAX prenyl protease 1 (P47154 whole entry): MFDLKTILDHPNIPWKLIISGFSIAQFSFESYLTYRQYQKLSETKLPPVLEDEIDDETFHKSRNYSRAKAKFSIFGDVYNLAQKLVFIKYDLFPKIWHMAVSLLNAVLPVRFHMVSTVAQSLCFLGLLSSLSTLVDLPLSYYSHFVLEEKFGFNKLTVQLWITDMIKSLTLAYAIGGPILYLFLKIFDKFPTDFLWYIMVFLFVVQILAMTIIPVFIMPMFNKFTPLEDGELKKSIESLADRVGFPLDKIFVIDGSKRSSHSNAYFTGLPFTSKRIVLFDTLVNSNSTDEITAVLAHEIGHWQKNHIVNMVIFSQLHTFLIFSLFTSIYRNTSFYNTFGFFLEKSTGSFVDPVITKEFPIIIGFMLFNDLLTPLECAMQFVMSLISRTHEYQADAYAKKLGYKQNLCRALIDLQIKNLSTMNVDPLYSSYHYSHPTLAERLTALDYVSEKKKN
Chain of Cytochrome P450 2C19 (P33261 whole entry): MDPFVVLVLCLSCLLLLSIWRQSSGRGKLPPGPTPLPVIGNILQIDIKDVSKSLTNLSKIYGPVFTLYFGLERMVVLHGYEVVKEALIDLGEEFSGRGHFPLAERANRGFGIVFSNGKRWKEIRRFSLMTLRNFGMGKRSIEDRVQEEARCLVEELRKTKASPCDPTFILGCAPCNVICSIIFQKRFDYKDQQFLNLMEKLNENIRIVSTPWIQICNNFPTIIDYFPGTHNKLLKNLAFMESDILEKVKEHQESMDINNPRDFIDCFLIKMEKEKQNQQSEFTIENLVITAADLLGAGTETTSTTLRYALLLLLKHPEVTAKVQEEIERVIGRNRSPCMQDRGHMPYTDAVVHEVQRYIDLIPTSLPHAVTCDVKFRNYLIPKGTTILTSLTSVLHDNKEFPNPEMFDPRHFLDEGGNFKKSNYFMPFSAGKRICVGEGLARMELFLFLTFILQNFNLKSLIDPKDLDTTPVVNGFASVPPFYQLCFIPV
Chain of ATP-dependent molecular chaperone HSP82 (C4YTQ8 whole entry): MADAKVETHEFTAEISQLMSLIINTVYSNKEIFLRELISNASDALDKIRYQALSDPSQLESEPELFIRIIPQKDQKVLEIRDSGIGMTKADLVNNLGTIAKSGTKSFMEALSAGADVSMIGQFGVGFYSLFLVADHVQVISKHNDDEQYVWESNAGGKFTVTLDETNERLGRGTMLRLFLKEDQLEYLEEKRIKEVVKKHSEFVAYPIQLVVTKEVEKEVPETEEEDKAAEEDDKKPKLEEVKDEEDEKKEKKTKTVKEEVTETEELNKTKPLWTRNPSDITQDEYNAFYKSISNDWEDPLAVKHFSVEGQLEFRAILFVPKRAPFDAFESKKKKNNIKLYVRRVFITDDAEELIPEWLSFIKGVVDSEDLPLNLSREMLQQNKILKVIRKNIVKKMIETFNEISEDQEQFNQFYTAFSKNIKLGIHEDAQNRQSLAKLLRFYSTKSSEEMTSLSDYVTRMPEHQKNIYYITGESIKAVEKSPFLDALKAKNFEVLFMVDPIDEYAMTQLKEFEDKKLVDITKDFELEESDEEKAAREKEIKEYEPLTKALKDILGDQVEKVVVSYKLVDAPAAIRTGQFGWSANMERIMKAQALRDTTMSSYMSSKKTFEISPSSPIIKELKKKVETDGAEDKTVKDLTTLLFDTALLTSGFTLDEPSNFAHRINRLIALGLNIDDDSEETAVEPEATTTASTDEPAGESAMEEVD

Consider `COc1ccc(-c2nc(C#N)c(NCc3ccc(F)cc3)o2)cc1OC`, for which the AC50 (commonly the concentration giving half of the maximal activity seen) in assay [1] was 59.4 µM (active).

For the compound `Cc1ccccc1Cn1c(=O)n(-c2ccccc2)c(=O)n([C@@H](C)C(N)=O)c1=O`, the 50% inhibitory concentration (IC50) (commonly the midpoint of a concentration-inhibition curve) is > 100 µM (not active) in assay [2], > 100 µM (not active) in assay [3], > 100 µM (inactive) in assay [4] and > 100 µM (inactive) in assay [5].

Turning to `Cc1cc(N2CCOCC2)n2cc(-c3ccccc3)nc2n1`, the AC50 on CAAX prenyl protease 1 was 38.6 µM (active).

In the case of `O=C(Nc1ccc(Cl)cc1)c1ccc(OC2CSC2)cc1`, the IC50 in [6] is > 79.4 µM (inactive); in [7], > 79.4 µM (inactive); in [8] it was 16.7 µM (not active); in assay [9], > 79.4 µM (inactive).

Consider `CCCOc1ccc(C(=O)NNC(=S)NC(=O)CC)cc1`, for which the EC50 (commonly the concentration giving half of the maximal effect) on Beta-galactosidase [10] was > 31.5 µM (inactive); in assay [19], 20.1 µM (active); in assay [20], > 180 µM (inactive); on Beta-galactosidase [22], > 40 µM (inactive); in [23] it was > 32 µM (inactive); in assay [25], 35.1 µM (active). Moreover, the EC50 in assay [26] is 0.612 µM (active); in assay [27] it was 0.384 µM (active); in the assay with Streptococcus, 2.48 µM (active); at Mu-type opioid receptor, > 32 µM (inactive). The half-maximal activity concentration (AC50) on Cytochrome P450 2C19 is 20 µM (inconclusive); in [12], 24.4 µM (active); in assay [13], 4.18 µM (active); in assay [18], > 70 µM (inactive). Also, the IC50 was above 32 µM in assay [11]; 7.86 µM (active) in assay [14]; 9.02 µM (active) in [15]; 7.95 µM (active) in assay [16]; > 25 µM (active) in the assay on Vero [17]; > 32 µM (inactive) in assay [24]. Further, the IC50 at Bcl-2-related protein A1 was > 20 µM (inactive); in assay [28], 7.14 µM (active). The cytotoxic concentration (CC50) (as a rule, the concentration at which the toxic effect on the cells reaches its halfway point) in the assay with Vero [21] is 21.3 µM (active).

As for `COc1cc(OC)cc(-c2c(-c3cccs3)c3cc(-c4ccc(N(C)C)nc4)ccc3n2C)c1`, the half-maximal activity concentration (AC50) is 28.5 µM (active) in assay [29] and 109 µM (active) in [30].

For the compound `O=S(=O)(NCC(c1cccnc1)N1CCN(c2ccc(F)cc2)CC1)c1ccccc1` (stereo unspecified), the EC50 in [31] was > 195 µM (not active); in assay [32], 0.057 µM (active); in assay [33], < 0.1 µM (active); in assay [34], 0.057 µM (active); in [35], > 60 µM (not active); in “cells” it was 0.066 µM (active).
